Results as given in patent US20230265151A1, “GIP/GLP1 CO-AGONIST COMPOUNDS” (priority 2020, published 2023).
Where two headings read alike, the source gives them in different places. *1 amine or outer side, *2 acyl side, *3 side chain or, on linkers, in order; H or OH if unused. Where a SMILES comes first, the peptide text is derived from it. Side-chain parts run from the residue outwards. [ ]: non-standard residue; d: D form. The star is where a group is joined. Decanoyl(10-(4-HOOC-PhO)) = O=C(O)c1ccc(OCCCCCCCCCC(=O)*)cc1; αMePhe(2-F) = C[C@](N)(Cc1ccccc1F)C(=O)O; γGlu = O=C(O)[C@H](CCC(=O)[*:2])N[*:1]; αMeY = C[C@](N)(Cc1ccc(O)cc1)C(=O)O; 4Pal = N[C@@H](Cc1ccncc1)C(=O)O; αMeL = CC(C)C[C@](C)(N)C(=O)O; Orn = NCCC[C@H](N)C(=O)O; AEEA = NCCOCCOCC(=O)O; Aib = CC(C)(N)C(=O)O

Experiments:
Format in all cases: cell-based
hGCGR = biological target: T1, hGCGR (Homo sapiens, UniProt P47871); assay: Functional cAMP formation (HTRF) in HEK-293 clonal cells expressing hGCGR, 0.1% bovine casein, without or with 1.0% human serum albumin; conditions: hGCGR EC50, nM (SEM, n), cAMP, 37° C.
T1 construct: expressed in transfected cells
T1 sequence (P47871 26-477): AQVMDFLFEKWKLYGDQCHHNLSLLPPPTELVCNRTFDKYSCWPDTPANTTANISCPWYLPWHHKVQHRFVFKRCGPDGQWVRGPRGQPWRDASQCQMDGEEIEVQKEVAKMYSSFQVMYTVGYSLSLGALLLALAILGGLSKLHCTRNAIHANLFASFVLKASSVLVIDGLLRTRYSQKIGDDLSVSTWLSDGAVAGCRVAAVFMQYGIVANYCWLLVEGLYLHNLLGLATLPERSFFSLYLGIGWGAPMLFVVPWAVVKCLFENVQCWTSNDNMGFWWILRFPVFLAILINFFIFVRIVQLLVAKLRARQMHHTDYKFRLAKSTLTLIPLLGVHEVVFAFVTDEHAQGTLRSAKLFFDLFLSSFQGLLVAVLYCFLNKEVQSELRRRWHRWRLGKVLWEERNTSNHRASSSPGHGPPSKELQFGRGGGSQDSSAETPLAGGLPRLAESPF
Procedure, shortened: (§1)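 Readings of the HTRF 665/620 nm ratio, which falls as cAMP rises, were converted to nM cAMP using a standard curve after 30 min peptide exposure at 37° C.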

hGLP-1R = hGLP-1R (Homo sapiens, UniProt P43220); assay: Functional cAMP formation (HTRF) in HEK-293 clonal cells expressing hGLP-1R, 0.1% bovine casein, without or with 1.0% human serum albumin; parameters: expressed in transfected cells; conditions: for Emax: percent of maximal response to GLP-1(7-36)NH2; for EC50: hGLP-1R EC50, nM (SEM, n), cAMP, 37° C.
hGLP-1R, sequence (P43220 24-463): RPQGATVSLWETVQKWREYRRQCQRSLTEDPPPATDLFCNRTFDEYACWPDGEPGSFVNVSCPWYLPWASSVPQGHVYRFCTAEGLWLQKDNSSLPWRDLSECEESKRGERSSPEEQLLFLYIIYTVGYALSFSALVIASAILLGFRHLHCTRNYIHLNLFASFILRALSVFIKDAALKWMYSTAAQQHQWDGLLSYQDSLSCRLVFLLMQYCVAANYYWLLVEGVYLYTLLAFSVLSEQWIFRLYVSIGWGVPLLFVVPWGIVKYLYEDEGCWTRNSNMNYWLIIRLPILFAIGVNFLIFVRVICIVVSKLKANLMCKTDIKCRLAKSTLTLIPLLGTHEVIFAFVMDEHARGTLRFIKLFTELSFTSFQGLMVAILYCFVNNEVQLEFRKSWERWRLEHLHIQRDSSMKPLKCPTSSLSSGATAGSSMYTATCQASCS
Procedure, shortened: as §1

hGIPR = biological target: T2, hGIPR (Homo sapiens, UniProt P48546); assay: Functional cAMP formation (HTRF) in HEK-293 clonal cells expressing hGIPR, 0.1% bovine casein, without or with 1.0% human serum albumin; conditions: for Emax: percent of maximal response to GIP(1-42)NH2; for EC50: hGIPR EC50, nM (SEM, n), cAMP, 37° C.
T2 construct: expressed in transfected cells
T2 sequence (P48546 22-466): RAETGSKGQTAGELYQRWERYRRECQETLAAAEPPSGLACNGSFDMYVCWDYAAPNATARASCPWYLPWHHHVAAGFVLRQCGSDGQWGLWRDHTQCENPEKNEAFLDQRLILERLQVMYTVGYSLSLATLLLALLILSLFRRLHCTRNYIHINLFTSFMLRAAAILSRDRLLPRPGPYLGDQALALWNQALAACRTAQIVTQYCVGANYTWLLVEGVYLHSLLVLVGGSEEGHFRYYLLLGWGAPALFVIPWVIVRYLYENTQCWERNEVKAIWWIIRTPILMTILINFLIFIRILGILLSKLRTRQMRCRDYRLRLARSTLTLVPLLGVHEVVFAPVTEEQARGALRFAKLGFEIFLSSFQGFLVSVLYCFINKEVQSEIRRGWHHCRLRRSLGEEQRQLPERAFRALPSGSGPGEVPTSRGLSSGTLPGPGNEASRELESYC
Procedure, shortened: as §1

[1] = 0.1% bovine casein (no human serum albumin), geometric mean
[2] = 0.1% bovine casein and 1.0% human serum albumin, geometric mean (SEM, n)
[3] = HEK293, read-out: hGLP-1R Emax, % ± SEM, cAMP, 37° C., 0.1% bovine casein and 1.0% human serum albumin
[4] = HEK293, read-out: hGLP-1R Emax, % ± SEM, cAMP, 37° C., 0.1% bovine casein, arithmetic mean
[5] = HEK293, read-out: hGIPR Emax, % ± SEM, cAMP, 37° C., 0.1% bovine casein and 1.0% human serum albumin
[6] = HEK293, read-out: hGIPR Emax, % ± SEM, cAMP, 37° C., 0.1% bovine casein, arithmetic mean

CC[C@H](C)[C@H](NC(=O)[C@H](CC(C)C)NC(=O)[C@](C)(Cc1ccc(O)cc1)NC(=O)[C@@H](CCC(=O)O)NC(=O)[C@@H](NC(=O)[C@H](Cc1ccccc1)NC(=O)[C@H](CCCN)NC(=O)C(C)(C)NC(=O)[C@H](CCC(N)=O)NC(=O)[C@H](C)NC(=O)[C@H](CCCCNC(=O)COCCOCCNC(=O)COCCOCCNC(=O)CC[C@H](NC(=O)CCCCCCCCCOc1ccc(C(=O)O)cc1)C(=O)O)NC(=O)[C@H](CCCN)NC(=O)[C@H](CC(=O)O)NC(=O)[C@H](CC(C)C)NC(=O)[C@](C)(CC(C)C)NC(=O)[C@@H](NC(=O)C(C)(C)NC(=O)[C@@H](NC(=O)[C@H](CC(=O)O)NC(=O)[C@H](CO)NC(=O)[C@@H](NC(=O)[C@](C)(Cc1ccccc1F)NC(=O)[C@@H](NC(=O)CNC(=O)[C@H](CCC(=O)O)NC(=O)C(C)(C)NC(=O)[C@@H](N)Cc1ccc(O)cc1)[C@@H](C)O)[C@@H](C)O)C(C)C)[C@@H](C)CC)[C@@H](C)CC)C(=O)N[C@@H](CCCCNC(=O)COCCOCCNC(=O)COCCOCCNC(=O)CC[C@H](NC(=O)CCCCCCCCCOc1ccc(C(=O)O)cc1)C(=O)O)C(=O)NCC(=O)NCC(=O)N1CCC[C@H]1C(=O)N[C@@H](CO)C(=O)N[C@@H](CO)C(=O)NCC(=O)N[C@@H](C)C(=O)N1CCC[C@H]1C(=O)N1CCC[C@H]1C(=O)N1CCC[C@H]1C(=O)N[C@@H](CO)C(N)=O [Example 353]
EC50 (hGCGR; [1]): > 9950 nM
EC50 (hGCGR; [2]): > 9950 nM
Emax (hGLP-1R; [3]): 92.5%
Emax (hGLP-1R; [4]): 98%
EC50 (hGLP-1R; [1]): 0.203 nM
Emax (hGIPR; [5]): 84.8%
Emax (hGIPR; [6]): 98.2%
EC50 (hGIPR; [1]): 0.0249 nM

CC[C@H](C)[C@H](NC(=O)[C@H](CCCN)NC(=O)[C@H](CC(=O)O)NC(=O)[C@H](CC(C)C)NC(=O)[C@](C)(CC(C)C)NC(=O)[C@@H](NC(=O)C(C)(C)NC(=O)[C@H](Cc1ccncc1)NC(=O)[C@H](CC(=O)O)NC(=O)[C@H](CO)NC(=O)[C@@H](NC(=O)[C@](C)(Cc1ccccc1F)NC(=O)[C@@H](NC(=O)CNC(=O)[C@H](CCC(=O)O)NC(=O)C(C)(C)NC(=O)[C@@H](N)Cc1ccc(O)cc1)[C@@H](C)O)[C@@H](C)O)[C@@H](C)CC)C(=O)N[C@@H](C)C(=O)N[C@@H](CCC(N)=O)C(=O)NC(C)(C)C(=O)N[C@@H](CCCN)C(=O)N[C@@H](Cc1ccccc1)C(=O)N[C@H](C(=O)N[C@@H](CCCCNC(=O)COCCOCCNC(=O)COCCOCCNC(=O)CC[C@H](NC(=O)CCCCCCCCCOc1ccc(C(=O)O)cc1)C(=O)O)C(=O)N[C@@](C)(Cc1ccc(O)cc1)C(=O)N[C@@H](CC(C)C)C(=O)N[C@H](C(=O)N[C@@H](CCCCNC(=O)COCCOCCNC(=O)COCCOCCNC(=O)CC[C@H](NC(=O)CCCCCCCCCOc1ccc(C(=O)O)cc1)C(=O)O)C(=O)NCC(=O)NCC(=O)N1CCC[C@H]1C(=O)N[C@@H](CO)C(=O)N[C@@H](CO)C(=O)NCC(=O)N[C@@H](C)C(=O)N1CCC[C@H]1C(=O)N1CCC[C@H]1C(=O)N1CCC[C@H]1C(=O)N[C@@H](CO)C(N)=O)[C@@H](C)CC)[C@@H](C)CC [Example 354] (H-Y[Aib]EGT[αMePhe(2-F)]TSD[4Pal][Aib]I[αMeL]LD[Orn]IAQ[Aib][Orn]FIK([AEEA-AEEA-γGlu-Decanoyl(10-(4-HOOC-PhO))])[αMeY]LIK([AEEA-AEEA-γGlu-Decanoyl(10-(4-HOOC-PhO))])GGPSSGAPPPS-NH2)
EC50 (hGCGR; [1]): > 9950 nM
EC50 (hGCGR; [2]): > 9950 nM
Emax (hGLP-1R; [3]): 95.9%
EC50 (hGLP-1R; [1]): 0.505 nM
Emax (hGIPR; [5]): 67.5%
Emax (hGIPR; [6]): 95.4%
EC50 (hGIPR; [1]): 0.0249 nM

CC[C@H](C)[C@H](NC(=O)[C@H](CCCN)NC(=O)[C@H](CC(=O)O)NC(=O)[C@H](CC(C)C)NC(=O)[C@](C)(CC(C)C)NC(=O)[C@@H](NC(=O)C(C)(C)NC(=O)[C@H](Cc1ccc(O)cc1)NC(=O)[C@H](CC(=O)O)NC(=O)[C@H](CO)NC(=O)[C@@H](NC(=O)[C@](C)(Cc1ccccc1F)NC(=O)[C@@H](NC(=O)CNC(=O)[C@H](CCC(=O)O)NC(=O)C(C)(C)NC(=O)[C@@H](N)Cc1ccc(O)cc1)[C@@H](C)O)[C@@H](C)O)[C@@H](C)CC)C(=O)N[C@@H](C)C(=O)N[C@@H](CCC(N)=O)C(=O)NC(C)(C)C(=O)N[C@@H](CCCN)C(=O)N[C@@H](Cc1ccccc1)C(=O)N[C@H](C(=O)N[C@@H](CCCCNC(=O)COCCOCCNC(=O)COCCOCCNC(=O)CC[C@H](NC(=O)CCCCCCCCCOc1ccc(C(=O)O)cc1)C(=O)O)C(=O)N[C@@](C)(Cc1ccc(O)cc1)C(=O)N[C@@H](CC(C)C)C(=O)N[C@H](C(=O)N[C@@H](CCCCNC(=O)COCCOCCNC(=O)COCCOCCNC(=O)CC[C@H](NC(=O)CCCCCCCCCOc1ccc(C(=O)O)cc1)C(=O)O)C(=O)NCC(=O)NCC(=O)N1CCC[C@H]1C(=O)N[C@@H](CO)C(=O)N[C@@H](CO)C(=O)NCC(=O)N[C@@H](C)C(=O)N1CCC[C@H]1C(=O)N1CCC[C@H]1C(=O)N1CCC[C@H]1C(=O)N[C@@H](CO)C(N)=O)[C@@H](C)CC)[C@@H](C)CC [Example 355]
EC50 (hGCGR; [1]): > 9950 nM
EC50 (hGCGR; [2]): > 9950 nM
Emax (hGLP-1R; [3]): 109%
Emax (hGLP-1R; [4]): 105%
EC50 (hGLP-1R; [1]): 0.574 nM
EC50 (hGLP-1R; [2]): 11.3 nM
Emax (hGIPR; [5]): 86%
EC50 (hGIPR; [1]): 0.0365 nM
EC50 (hGIPR; [2]): 1.81 nM

CC[C@H](C)[C@H](NC(=O)[C@H](CCCN)NC(=O)[C@H](CC(=O)O)NC(=O)[C@H](CC(C)C)NC(=O)[C@](C)(CC(C)C)NC(=O)[C@@H](NC(=O)C(C)(C)NC(=O)[C@@H](NC(=O)[C@H](CC(=O)O)NC(=O)[C@H](CO)NC(=O)[C@@H](NC(=O)[C@](C)(Cc1ccccc1F)NC(=O)[C@@H](NC(=O)CNC(=O)[C@H](CCC(=O)O)NC(=O)C(C)(C)NC(=O)[C@@H](N)Cc1ccc(O)cc1)[C@@H](C)O)[C@@H](C)O)C(C)C)[C@@H](C)CC)C(=O)N[C@@H](C)C(=O)N[C@@H](CCC(N)=O)C(=O)NC(C)(C)C(=O)N[C@@H](CCCN)C(=O)N[C@@H](Cc1ccccc1)C(=O)N[C@H](C(=O)N[C@@H](CCCCNC(=O)COCCOCCNC(=O)COCCOCCNC(=O)CC[C@H](NC(=O)CCCCCCCCCOc1ccc(C(=O)O)cc1)C(=O)O)C(=O)N[C@@](C)(Cc1ccc(O)cc1)C(=O)N[C@@H](CC(C)C)C(=O)N[C@H](C(=O)N[C@@H](CCCCNC(=O)COCCOCCNC(=O)COCCOCCNC(=O)CC[C@H](NC(=O)CCCCCCCCCOc1ccc(C(=O)O)cc1)C(=O)O)C(=O)NCC(=O)NCC(=O)N1CCC[C@H]1C(=O)N[C@@H](CO)C(=O)N[C@@H](CO)C(=O)NCC(=O)N[C@@H](C)C(=O)N1CCC[C@H]1C(=O)N1CCC[C@H]1C(=O)N1CCC[C@H]1C(=O)N[C@@H](CO)C(N)=O)[C@@H](C)CC)[C@@H](C)CC [Example 356]
EC50 (hGCGR; [1]): > 9950 nM
EC50 (hGCGR; [2]): > 9950 nM
Emax (hGLP-1R; [3]): 93%
EC50 (hGLP-1R; [1]): 0.936 nM
EC50 (hGLP-1R; [2]): 23.4 nM
Emax (hGIPR; [5]): 82.7%
Emax (hGIPR; [6]): 96.2%
EC50 (hGIPR; [1]): 0.0488 nM
